Reference: US20230312759A1, “BISPECIFIC ANTIBODY AGAINST CD3 AND CD20 IN COMBINATION THERAPY FOR TREATING DIFFUSE LARGE B-CELL LYMPHOMA” (GENMAB A/S, priority 2020, published 2023)

Tests used:
[1] = test system: T cells incubated with SU-DHL-4 cells; assay: In vitro T-cell activation assay, T cells incubated with SU-DHL-4 cells; format: cell-based, human; settings: SU-DHL-4 target cells, 48 hours
Procedure: (§1) Briefly, human Burkitt lymphoma (Raji) and DLBCL (SU-DHL-4) cell lines were used as target cells. Cells were cultured in culture medium (RPMI 1640 with HEPES and L-Glutamine supplemented with 10% heat-inactivated donor bovine serum with iron, and 1% [v/v]penicillin/streptomycin) to which 2 mM L-glutamine and 1 mM sodium pyruvate were added, at 37° C., 5% CO2. T cells, isolated from human healthy donor buffy coats (Sanquin) by negative selection using the RosetteSep™ Human T Cell Enrichment Cocktail (Stemcell Technologies), followed by density centrifugation over a Ficoll gradient, both according to the manufacturer's instructions, were used as effector cells. Isolated cells were washed twice in phosphate buffered saline (PBS) and counted using acridine orange/propidium iodide (AO/PI) viability staining solution (Nexcelom Bioscience) on a Cellometer® Auto 2000 Cell Viability Counter. […] B-cell viability and T-cell activation were measured by flow cytometry (count of CD22-positive cells; expression of the T-cell activation markers CD69, CD25, programmed cell death protein 1 (PD-1), and CD107 [lysosomal associated membrane protein 1; LAMP-1] on CD4+ and CD8+ T cells). Absolute cell numbers were determined by adding Accucheck Counting beads (100 μL/well) (Thermofisher) and calculated as follows: […]

SU-DHL-4 cells = format: cell-based; settings: SU-DHL-4, with T cells, 48 hours; epcoritamab 0.01 pg/mL-100 ng/mL; gemcitabine, oxaliplatin at EC30 concentrations
Procedure: (§2) Briefly, human Burkitt lymphoma (Raji) and DLBCL (SU-DHL-4) cell lines were used as target cells. Cells were cultured in culture medium (RPMI 1640 with HEPES and L-Glutamine supplemented with 10% heat-inactivated donor bovine serum with iron, and 1% [v/v]penicillin/streptomycin) to which 2 mM L-glutamine and 1 mM sodium pyruvate were added, at 37° C., 5% CO2. T cells, isolated from human healthy donor buffy coats (Sanquin) by negative selection using the RosetteSep™ Human T Cell Enrichment Cocktail (Stemcell Technologies), followed by density centrifugation over a Ficoll gradient, both according to the manufacturer's instructions, were used as effector cells. Isolated cells were washed twice in phosphate buffered saline (PBS) and counted using acridine orange/propidium iodide (AO/PI) viability staining solution (Nexcelom Bioscience) on a Cellometer® Auto 2000 Cell Viability Counter. […] B-cell viability and T-cell activation were measured by flow cytometry (count of CD22-positive cells; expression of the T-cell activation markers CD69, CD25, programmed cell death protein 1 (PD-1), and CD107 [lysosomal associated membrane protein 1; LAMP-1] on CD4+ and CD8+ T cells). Absolute cell numbers were determined by adding Accucheck Counting beads (100 μL/well) (Thermofisher) and calculated as follows:
(§3) Correction factor=([bead count1+bead count2]/average bead countplate)
(§4) Absolute cell number=[cell countsample/correction factor]
(§5) The percentage cytotoxicity was calculated as follows:
(§6) % cytotoxicity=100−([absolute cell numbersample/absolute cell numberno antibody]×100%)

Raji cells = format: cell-based; settings: with T cells, 48 hours, epcoritamab 0.01 pg/mL-100 ng/mL, gemcitabine, oxaliplatin at EC30 concentrations
Procedure: as §2, §3, §4, §5, §6

R/R B-NHL = assay: Ongoing clinical trial of epcoritamab monotherapy (NCT03625037); format: in vivo, human; settings: R/R B-NHL patients, preliminary data
Description: Summary of Ongoing Clinical Trial with Epcoritamab Epcoritamab as monotherapy is currently in a clinical trial for the treatment of relapsed/refractory (R/R) B-NHL (ClinicalTrials.gov Identifier: NCT03625037).

[2] = test system: T cells incubated with Raji cells; assay: In vitro T-cell activation assay, T cells incubated with Raji cells; format: cell-based, human; settings: Raji target cells, 48 hours
Procedure: as §1

[3] = epcoritamab 0.01 pg/mL-100 ng/mL, flow cytometry
[4] = gemcitabine 1 nM, oxaliplatin 0.3 μM

Compound	T-cell activation (upregulation of CD69, CD25, PD-1 and LAMP-1 expression) [1, 3]	Epcoritamab-induced T-cell activation in the presence of gemcitabine, oxaliplatin, or the combination [1, 4]	cytotoxicity of B cells (decrease in the number of viable B cells) (SU-DHL-4 cells)	cytotoxicity of B cells (decrease in the number of viable B cells) (Raji cells)	tolerated dose (R/R B-NHL)	T-cell activation (upregulation of CD69, CD25, PD-1 and LAMP-1 expression) [2, 3]	Epcoritamab-induced T-cell activation in the presence of gemcitabine, oxaliplatin, or the combination [2, 4]
epcoritamab: IgG1 bispecific CD3×CD20 antibody; heavy and light chains of SEQ ID NOs: 24 and 25 (CD3 arm), 26 and 27 (CD20 arm); CAS 2134641-34-0	concentration-dependent activation of both CD4+ (data not shown) and CD8+ T cells	not affected	concentration-dependent T-cell-mediated cytotoxicity	concentration-dependent T-cell-mediated cytotoxicity	at least 48 mg	concentration-dependent activation of both CD4+ (data not shown) and CD8+ T cells	not affected
O=C1[O][Pt]2([NH][C@@H]3CCCC[C@H]3[NH]2)[O]C1=O [oxaliplatin, [(1R,2R)-cyclohexane-1,2-diamine](ethanedioato-O,O′)platinum(II)]	–	–	induced cytotoxicity of B cells	induced cytotoxicity of B cells	–	–	–
Nc1ccn(C2OC(CO)C(O)C2(F)F)c(=O)n1 (centres unmarked) [gemcitabine, 4-amino-1-[3,3-difluoro-4-hydroxy-5-(hydroxymethyl)oxolan-2-yl]-1,2-dihydropyrimidin-2-one]	–	–	induced cytotoxicity of B cells	induced cytotoxicity of B cells	–	–	–
